Measured values from US20100144591A1, “BENZIMIDAZOLE DERIVATIVES AND METHODS OF USE THEREOF” (Schering Corporation, priority 2007, published 2010).

Tested on: STZ-induced type 2 diabetic mice
Assay: In vivo effect on glucose levels in diabetic mice
Conditions: 10 mg/kg/day in diet; relative to control mice and mice treated with rosiglitazone (5 mg/kg/day in diet)
Experimental: The leftmost black solid bar represents diabetic control mice, the second from left black solid bar represents mice treated for one week with rosiglitazone at 5 mg/kg/day; the third from left black solid bar represents mice treated for one week with Compound 174 at 10 mg/kg/day; the fourth from left black solid bar represents mice treated for one week with Compound 174 at 1 mg/kg/day; and the white bar represents nondiabetic control mice. The y-axis indicates non-fasting glucose levels (mg/dl).
Five-week-old male ICR mice were purchased from Taconic Farm (Germantown, N.Y.) and placed on a “western diet” containing 45% (kcal) fat from lard and 0.12% (w/w) cholesterol. After 3 weeks of feeding, the mice were injected once with low dose streptozocin (STZ, ip 75-100 mg/kg) to induce partial insulin deficiency. […] The diabetic mice were then placed in one of groups: (1) a non-treated diabetic control group, (2) a group treated with rosiglitazone (5 mg/kg/day in diet); (3) a group treated with Compound 174(10/mg/kg in diet) for four weeks; and (4) a group treated with Compound 174 (1/mg/kg in diet) for four weeks.

Nc1cc(CN2CCC(C(=O)N3CCC(n4c(-c5ccc(F)c(F)c5)nc5cccnc54)CC3)CC2)ccn1 [Compound 174]
HbA1C levels: significantly reduced
non-fasting glucose levels: significantly reduced
